Values of other authors in PMC9516332 (Frontiers in Oncology, 2022).
Like-named read-outs stand apart in the source and are kept apart here.

Columns and labels:
Settings in all cases: cited from earlier work
[1] = molecular target: T1, panel of 255 wild-type kinases (Homo sapiens, UniProt Q9UHD2)
T1 sequence (Q9UHD2 1-729): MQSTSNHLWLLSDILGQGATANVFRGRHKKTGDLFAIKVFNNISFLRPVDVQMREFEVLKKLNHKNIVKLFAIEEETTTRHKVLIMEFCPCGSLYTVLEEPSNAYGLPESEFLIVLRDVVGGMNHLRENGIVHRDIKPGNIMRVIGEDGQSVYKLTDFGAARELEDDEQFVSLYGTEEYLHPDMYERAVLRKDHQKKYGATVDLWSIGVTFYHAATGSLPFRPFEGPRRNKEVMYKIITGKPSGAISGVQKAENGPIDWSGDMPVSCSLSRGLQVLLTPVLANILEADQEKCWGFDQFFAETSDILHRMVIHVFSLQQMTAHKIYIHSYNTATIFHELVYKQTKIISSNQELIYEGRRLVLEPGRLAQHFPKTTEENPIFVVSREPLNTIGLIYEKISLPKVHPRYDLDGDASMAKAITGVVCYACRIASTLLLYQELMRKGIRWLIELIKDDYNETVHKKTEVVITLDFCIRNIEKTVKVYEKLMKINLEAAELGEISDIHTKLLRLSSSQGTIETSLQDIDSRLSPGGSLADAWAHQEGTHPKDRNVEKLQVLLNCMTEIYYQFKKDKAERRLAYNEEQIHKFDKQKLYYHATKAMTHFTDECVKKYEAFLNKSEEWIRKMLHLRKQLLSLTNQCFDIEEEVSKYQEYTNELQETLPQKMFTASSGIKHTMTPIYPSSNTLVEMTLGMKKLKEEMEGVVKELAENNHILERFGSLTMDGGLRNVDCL

[2] = molecular target: panel of 255 wild-type kinases (Homo sapiens, UniProt P09769)
[3] = molecular target: T2, panel of 255 wild-type kinases (Homo sapiens, UniProt Q96BR1)
T2 sequence (Q96BR1 1-496): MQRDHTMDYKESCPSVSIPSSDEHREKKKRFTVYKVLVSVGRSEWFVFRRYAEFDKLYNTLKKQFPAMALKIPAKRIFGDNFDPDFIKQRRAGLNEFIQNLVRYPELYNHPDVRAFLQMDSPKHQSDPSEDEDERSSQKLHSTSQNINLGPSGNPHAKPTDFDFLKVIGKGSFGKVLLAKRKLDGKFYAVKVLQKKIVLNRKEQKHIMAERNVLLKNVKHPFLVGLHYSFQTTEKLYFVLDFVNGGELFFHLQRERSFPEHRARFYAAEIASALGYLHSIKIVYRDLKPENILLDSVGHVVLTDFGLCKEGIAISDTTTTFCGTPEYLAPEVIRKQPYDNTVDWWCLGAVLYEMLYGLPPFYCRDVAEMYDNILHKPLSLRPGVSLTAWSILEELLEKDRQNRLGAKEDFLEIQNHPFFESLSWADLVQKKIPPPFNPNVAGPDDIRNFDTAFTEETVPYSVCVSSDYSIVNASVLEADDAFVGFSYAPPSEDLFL

[4] = molecular target: panel of 255 wild-type kinases (Homo sapiens, UniProt O75582)
[5] = molecular target: panel of 255 wild-type kinases (Homo sapiens, UniProt Q15208)
[6] = molecular target: T3, panel of 255 wild-type kinases (Homo sapiens, UniProt Q16832)
T3 sequence (Q16832 22-855): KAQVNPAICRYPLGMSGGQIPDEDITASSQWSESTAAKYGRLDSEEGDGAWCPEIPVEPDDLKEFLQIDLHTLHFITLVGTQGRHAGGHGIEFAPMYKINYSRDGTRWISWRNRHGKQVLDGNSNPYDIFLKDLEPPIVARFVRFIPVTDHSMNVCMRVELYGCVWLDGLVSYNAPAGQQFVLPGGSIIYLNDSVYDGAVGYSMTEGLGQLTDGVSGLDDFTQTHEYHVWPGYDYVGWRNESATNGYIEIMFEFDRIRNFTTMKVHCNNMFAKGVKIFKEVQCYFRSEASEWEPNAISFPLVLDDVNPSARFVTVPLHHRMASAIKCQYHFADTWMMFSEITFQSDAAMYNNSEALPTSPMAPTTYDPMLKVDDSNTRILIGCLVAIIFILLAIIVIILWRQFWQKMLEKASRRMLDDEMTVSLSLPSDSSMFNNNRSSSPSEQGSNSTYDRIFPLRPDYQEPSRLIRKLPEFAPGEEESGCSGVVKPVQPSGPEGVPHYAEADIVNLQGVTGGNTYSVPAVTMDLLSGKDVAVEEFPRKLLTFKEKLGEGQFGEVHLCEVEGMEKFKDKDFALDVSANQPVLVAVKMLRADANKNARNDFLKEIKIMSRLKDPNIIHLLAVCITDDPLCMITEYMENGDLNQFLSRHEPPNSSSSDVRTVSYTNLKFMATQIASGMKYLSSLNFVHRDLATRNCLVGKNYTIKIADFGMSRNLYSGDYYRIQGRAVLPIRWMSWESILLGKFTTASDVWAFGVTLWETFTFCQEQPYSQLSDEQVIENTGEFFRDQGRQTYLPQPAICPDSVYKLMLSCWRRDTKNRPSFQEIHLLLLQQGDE

[7] = molecular target: panel of 255 wild-type kinases (Homo sapiens, UniProt Q15119)
[8] = molecular target: panel of 255 wild-type kinases (Homo sapiens, UniProt Q9Y3S1)
[9] = molecular target: panel of 255 wild-type kinases (Homo sapiens, UniProt Q9P1W9)
[10] = kinase TBK1, 1 µmol/L single concentration, ref DOI: 10.1158/1535-7163.MCT-18-0877
[11] = kinase FGR, 1 µmol/L single concentration, ref DOI: 10.1158/1535-7163.MCT-18-0877
[12] = kinase SGK3, 1 µmol/L single concentration, ref DOI: 10.1158/1535-7163.MCT-18-0877
[13] = MSK1, 1 µmol/L single concentration, ref DOI: 10.1158/1535-7163.MCT-18-0877
[14] = NDR1, 1 µmol/L single concentration, ref DOI: 10.1158/1535-7163.MCT-18-0877
[15] = kinase DDR2, 1 µmol/L single concentration, ref DOI: 10.1158/1535-7163.MCT-18-0877
[16] = kinase PDHK2, 1 µmol/L single concentration, ref DOI: 10.1158/1535-7163.MCT-18-0877
[17] = kinase WNK2, 1 µmol/L single concentration, ref DOI: 10.1158/1535-7163.MCT-18-0877
[18] = kinase PIM2, 1 µmol/L single concentration, ref DOI: 10.1158/1535-7163.MCT-18-0877
[19] = kinase TBK1, 1 µmol/L single concentration, ref DOI: 10.1371/journal.pone.0092146
[20] = kinase FGR, 1 µmol/L single concentration, ref DOI: 10.1371/journal.pone.0092146
[21] = kinase SGK3, 1 µmol/L single concentration, ref DOI: 10.1371/journal.pone.0092146
[22] = NDR1, 1 µmol/L single concentration, ref DOI: 10.1371/journal.pone.0092146
[23] = kinase DDR2, 1 µmol/L single concentration, ref DOI: 10.1371/journal.pone.0092146
[24] = kinase PDHK2, 1 µmol/L single concentration, ref DOI: 10.1371/journal.pone.0092146
[25] = kinase WNK2, 1 µmol/L single concentration, ref DOI: 10.1371/journal.pone.0092146
[26] = kinase PIM2, 1 µmol/L single concentration, ref DOI: 10.1371/journal.pone.0092146

| SMILES | %-inhibition at 1 µmol/L, TBK1 [1, 10] [%] | %-inhibition at 1 µmol/L, FGR [2, 11] [%] | %-inhibition at 1 µmol/L, SGK3 [3, 12] [%] | %-inhibition, MSK1 [4, 13] [%] | %-inhibition, NDR1 [5, 14] [%] | %-inhibition at 1 µmol/L, DDR2 [6, 15] [%] | %-inhibition at 1 µmol/L, PDHK2 [7, 16] [%] | %-inhibition at 1 µmol/L, WNK2 [8, 17] [%] | %-inhibition at 1 µmol/L, PIM2 [9, 18] [%] | further results |
| --- | --- | --- | --- | --- | --- | --- | --- | --- | --- | --- |
| CC#CC(=O)N1CCC[C@H]1c1nc(-c2ccc(C(=O)Nc3ccccn3)cc2)c2c(N)nccn12 [acalabrutinib] | 2.14 | 3 | -12 | -8 | -6.32 | 6 | 0.164 | 0.787 | -17 |  |
| CCc1cc2c(cc1N1CCC(N3CCOCC3)CC1)C(C)(C)c1[nH]c3cc(C#N)ccc3c1C2=O [alectinib] | 6 | 40 | 1.51 | 0.0374 | 1.29 | 8 | 0.393 | 1.16 | 2.36 |  |
| COc1cc(N2CCC(N3CCN(C)CC3)CC2)ccc1Nc1ncc(Cl)c(Nc2ccccc2P(C)(C)=O)n1 [brigatinib] |  |  |  |  |  |  |  |  |  | %-inhibition at 1 µmol/L, TBK1 [1]: 23%; %-inhibition at 1 µmol/L, FGR [2]: 52%; %-inhibition at 1 µmol/L, SGK3 [3]: -2.26%; %-inhibition, MSK1 [4]: 23%; %-inhibition, NDR1 [5]: 63%; %-inhibition at 1 µmol/L, DDR2 [6]: 60%; %-inhibition at 1 µmol/L, PDHK2 [7]: 2%; %-inhibition at 1 µmol/L, WNK2 [8]: 0.119%; %-inhibition at 1 µmol/L, PIM2 [9]: -11% |
| Cc1cc(Nc2ncc(Cl)c(Nc3ccccc3S(=O)(=O)C(C)C)n2)c(OC(C)C)cc1C1CCNCC1 [ceritinib] | 4 | 5 | -0.738 | -1.09 | 15 | 12 | -1.41 | -1.28 | -8 |  |
| O=C(c1ccc(F)c(F)c1Nc1ccc(I)cc1F)N1CC(O)([C@@H]2CCCCN2)C1 [cobimetinib] | 4 | -1.29 | -4 | -3 | 2.53 | 0.567 | -0.379 | 5 | -4.45 |  |
| C[C@@H](Oc1cc(-c2cnn(C3CCNCC3)c2)cnc1N)c1c(Cl)ccc(F)c1Cl [crizotinib] |  |  |  |  |  |  |  |  |  | %-inhibition at 1 µmol/L, TBK1 [1, 19]: 1.42%; %-inhibition at 1 µmol/L, FGR [2, 20]: 70%; %-inhibition at 1 µmol/L, SGK3 [3, 21]: -3%; %-inhibition, MSK1 [4]: -0.641%; %-inhibition, NDR1 [5, 22]: -1.48%; %-inhibition at 1 µmol/L, DDR2 [6, 23]: 88%; %-inhibition at 1 µmol/L, PDHK2 [7, 24]: -3.51%; %-inhibition at 1 µmol/L, WNK2 [8, 25]: -4%; %-inhibition at 1 µmol/L, PIM2 [9, 26]: -5.28% |
| CC(C)(C)c1nc(-c2cccc(NS(=O)(=O)c3c(F)cccc3F)c2F)c(-c2ccnc(N)n2)s1 [dabrafenib] |  |  |  |  |  |  |  |  |  | %-inhibition at 1 µmol/L, TBK1 [1, 19]: -1.15%; %-inhibition at 1 µmol/L, FGR [2, 20]: 82%; %-inhibition at 1 µmol/L, SGK3 [3, 21]: 0.0854%; %-inhibition, MSK1 ([4]; MSK1, 1 µmol/L single concentration, ref DOI: 10.1371/journal.pone.0092146): 0.0759%; %-inhibition, NDR1 [5, 22]: -0.891%; %-inhibition at 1 µmol/L, DDR2 [6, 23]: 100%; %-inhibition at 1 µmol/L, PDHK2 [7, 24]: 0.108%; %-inhibition at 1 µmol/L, WNK2 [8, 25]: 0.686%; %-inhibition at 1 µmol/L, PIM2 [9, 26]: 0.238% |
| C=CC(=O)N1CCC[C@@H](n2nc(-c3ccc(Oc4ccccc4)cc3)c3c(N)ncnc32)C1 [ibrutinib] | 0.825 | 99 | 0.579 | -1.18 | 2.65 | 17 | -1.08 | 5.67 | -5 |  |
